From patent publication US20210236668A1, “COMPOSITIONS FOR RADIOTHERAPY AND USES THEREOF” (The Trustees of Columbia University in the City of New York, priority 2018, published 2021)
Values joined by “and” are separate entries in the source; they are usually repeats but may differ in a detail not shown here. Equal entries are not always repeated. Structures can show the parent of a compound that is named as a salt. Where two headings read alike, the source gives them in different places.

Key:
NCI-28H cells = settings: for % survival from untreated cells: cells + drug / Average reading: cells + drug / Average absorbance reading: cells + drug / % survival cells after exposure to drug for 72 hrs (cells + drug only) / Average absorbance readings: cells + drug: NCI-28H
NCI-2052H cells = assay: Cytotoxicity assay (MTS, CellTiter 96 AQueous One, 490 nm), 72 hrs; format: cell-based; settings: for Average reading: cells + drug: absorbance 490 nm
Method: Read absorbance (MTS assay) and calculate cells survival rate. Compare survival rate
1,500,000 cells/440,000=3.4 ml of cells/media mix need to take from flask and transfer to 26.6 ml media. In 50 ml Falcon tube, combine 26.6 ml fresh medium and 3.4 ml cells. Gently mix.
1. Centrifuge tubes at 3200 rpm for 3 min. Take out supernatant.
6. Check the plates and start incubation for 72 hrs at 37° C./5% CO2.
5. Incubate plate 1 hr at 37° C., 5% CO2.
Compare survival rate of cells.
1. […] Protocol how to do that see in previous cytotoxicity experiment.
1. Incubate plate for 72 hrs at 37° C., 5% CO2.
6. Incubate plate 1 hr at 37° C., 5% CO2.

[1] = Talc bound to hot/cold Avidin, 48 hrs wash in PBS containing 10% FBS, absorbance 450 nm; format: physicochemical; settings: 48 hrs in PBS containing 10% FBS
Method: Purpose: To check how strong the conjugate of hot/cold Avidin to Talc is. […] Absorbance will be checked twice—once before washing with PBS containing 10% FBS and after 48 hours, washing will be done.
14. […] Two identical microplates need to be set up, labeling them as: plate #1 and plate #2. Design of the plate:
3. Wash both plates 3× with 300 μL PBS.
5. […] Mix constantly, cover plate with Aluminum foil.
6. Add 100 μL of TMB to samples in plate #1.
9. Read absorbance at 450 nm using the plate reader.
3. Collect 100 μL supernatant from samples except native controls and load on same plate.
4. Wash plate except supernatant samples 3× with 300 μL PBS.
6. Add 100 μL of TMB to all samples in plate #2.

## N.N.O=C([O-])C1(C(=O)[O-])CCC1.[Pt+2] [Carboplatin]
NCI-28H cells; carboplatin 0.006 μM
  % survival from untreated cells: cells + drug: 90.84% and 94.28%
NCI-28H cells; carboplatin 0.006 μM, absorbance 490 nm
  Average reading: cells + drug: 1.504
NCI-28H cells; carboplatin 0.8 μM
  % survival from untreated cells: cells + drug: 85.98% and 87.53%
NCI-28H cells; carboplatin 0.8 μM, absorbance 490 nm
  Average reading: cells + drug: 1.4238
NCI-28H cells; carboplatin 4 μM
  % survival from untreated cells: cells + drug: 96.93% and 93.62%
NCI-28H cells; carboplatin 4 μM, absorbance 490 nm
  Average reading: cells + drug: 1.605
NCI-28H cells; carboplatin 20 μM
  % survival from untreated cells: cells + drug: 104.81% and 99.20%
NCI-28H cells; carboplatin 20 μM, absorbance 490 nm
  Average reading: cells + drug: 1.7355
NCI-28H cells; carboplatin 100 μM
  % survival from untreated cells: cells + drug: 83.82% and 79.53%
NCI-28H cells; carboplatin 100 μM, absorbance 490 nm
  Average reading: cells + drug: 1.388
NCI-28H cells; carboplatin 500 μM
  % survival from untreated cells: cells + drug: 37.38% and 35.14%
NCI-28H cells; carboplatin 500 μM, absorbance 490 nm
  Average reading: cells + drug: 0.6189

## N.N.[Cl][Pt][Cl] [Cisplatin]
NCI-28H cells
  cytotoxicity to NCI-28H cells, comparison: no noticeable difference in toxicity
NCI-28H cells; 72 hrs, Cisplatin 20 μM
  Average reading: cells + cisplatin: 0.48
NCI-28H cells; 72 hrs, Cisplatin 100 μM
  Average reading: cells + cisplatin: 0.59

## COc1cccc2c1C(=O)c1c(O)c3c(c(O)c1C2=O)C[C@@](O)(C(=O)CO)C[C@@H]3O[C@H]1C[C@H](N)[C@H](O)[C@H](C)O1 [DOX, Doxorubicin Hydrochloride]
NCI-2052H cells; doxorubicin 400 nM
  % survival from untreated cells: 57.76%
NCI-2052H cells; doxorubicin 2000 nM
  % survival from untreated cells: 25.59%
NCI-2052H cells; doxorubicin 10,000 nM
  % survival from untreated cells: 18.91%
NCI-28H cells; 72 hrs, DOX 0.000064 μM
  AVERAGE: cells + DOX (absorbance): 1.18
NCI-28H cells; 72 hrs, DOX 0.2 μM
  AVERAGE: cells + DOX (absorbance): 0.89
NCI-28H cells; 72 hrs, DOX 1 μM
  AVERAGE: cells + DOX (absorbance): 0.67
NCI-28H cells; 72 hrs, DOX 5 μM
  AVERAGE: cells + DOX (absorbance): 0.63
NCI-28H cells; 72 hrs, Dox 200 nM
  % survival from untreated by DOX cells: 65.0%
NCI-28H cells; cells + 125 nM DOX
  % survival NCI-28H cells after different treatment (compare to untreated cells): 70%

## CC(=O)O[C@H]1C(=O)[C@@]2(C)[C@H]([C@H](OC(=O)c3ccccc3)[C@]3(O)C[C@H](OC(=O)[C@H](O)[C@@H](NC(=O)c4ccccc4)c4ccccc4)C(C)=C1C3(C)C)[C@]1(OC(C)=O)CO[C@@H]1C[C@@H]2O [Paclitaxel]
NCI-2052H cells; paclitaxel 0.256 nM
  Average reading: cells + drug: 1.4273
NCI-2052H cells; paclitaxel 6.4 nM
  Average reading: cells + drug: 1.54
NCI-2052H cells; paclitaxel 32 nM
  Average reading: cells + drug: 0.5818
NCI-2052H cells; paclitaxel 160 nM
  Average reading: cells + drug: 0.4361
NCI-2052H cells; paclitaxel 800 nM
  Average reading: cells + drug: 0.4326
NCI-2052H cells; paclitaxel 4000 nM
  Average reading: cells + drug: 0.553
NCI-2052H cells; paclitaxel 20,000 nM
  Average reading: cells + drug: 0.1647
NCI-28H cells; Paclitaxel 80 nM, absorbance 490 nm
  Average readings: cells + drug: 1.10

## Nc1ccn([C@@H]2O[C@H](CO)[C@@H](O)C2(F)F)c(=O)n1 [gemcitabine, Gemcitabine]
NCI-28H cells
  cytotoxicity to NCI-28H cells, comparison: clear cytotoxic effect
NCI-28H cells; gemcitabine 0.0026 μM
  % survival from untreated cells: cells + drug: 114.61%
  Average absorbance reading: cells + drug: 2.034
NCI-28H cells; gemcitabine 0.013 μM
  % survival from untreated cells: cells + drug: 107.85%
  Average absorbance reading: cells + drug: 1.914
NCI-28H cells; gemcitabine 0.064 μM
  % survival from untreated cells: cells + drug: 80.60%
  Average absorbance reading: cells + drug: 1.43
NCI-28H cells; gemcitabine 8 μM
  % survival from untreated cells: cells + drug: 56.58%
  Average absorbance reading: cells + drug: 1.004
NCI-28H cells; gemcitabine 40 μM
  % survival from untreated cells: cells + drug: 60.09%
  Average absorbance reading: cells + drug: 1.0663
NCI-28H cells; gemcitabine 200 μM
  % survival from untreated cells: cells + drug: 52.70%
  Average absorbance reading: cells + drug: 0.9352

## CO[C@@]12[C@H](COC(N)=O)C3=C(C(=O)C(C)=C(N)C3=O)N1C[C@@H]1N[C@@H]12 [mitomycin, Mitomycin]
NCI-2052H cells; mitomycin 0.013 μM
  Average reading: cells + drug: 1.284
NCI-2052H cells; mitomycin 0.064 μM
  Average reading: cells + drug: 1.199
NCI-2052H cells; mitomycin 8 μM
  Average reading: cells + drug: 0.4142
NCI-2052H cells; mitomycin 40 μM
  Average reading: cells + drug: 0.2305
NCI-2052H cells; mitomycin 200 μM
  Average reading: cells + drug: 0.2098
NCI-2052H cells; mitomycin .0026 μM
  Average reading: cells + drug: 1.424
NCI-28H cells; mitomycin 0.0026 μM, 72 hrs
  % survival cells after exposure to drug for 72 hrs (cells + drug only): 106.12%
NCI-28H cells; mitomycin 0.0026 μM
  Average absorbance readings: cells + drug: 2.032
NCI-28H cells; mitomycin 0.013 μM, 72 hrs
  % survival cells after exposure to drug for 72 hrs (cells + drug only): 102.65%
NCI-28H cells; mitomycin 0.013 μM
  Average absorbance readings: cells + drug: 1.965
NCI-28H cells; mitomycin 0.064 μM, 72 hrs
  % survival cells after exposure to drug for 72 hrs (cells + drug only): 98.03%
NCI-28H cells; mitomycin 0.064 μM
  Average absorbance readings: cells + drug: 1.8766
NCI-28H cells; mitomycin 8 μM, 72 hrs
  % survival cells after exposure to drug for 72 hrs (cells + drug only): 18.03%
NCI-28H cells; mitomycin 8 μM
  Average absorbance readings: cells + drug: 0.3451
NCI-28H cells; mitomycin 40 μM, 72 hrs
  % survival cells after exposure to drug for 72 hrs (cells + drug only): 27.16%
NCI-28H cells; mitomycin 40 μM
  Average absorbance readings: cells + drug: 0.52
NCI-28H cells; mitomycin 200 μM, 72 hrs
  % survival cells after exposure to drug for 72 hrs (cells + drug only): 12.87%
NCI-28H cells; mitomycin 200 μM
  Average absorbance readings: cells + drug: 0.2464

## Avidin: Avidin from egg white (Sigma A9275), 66 kDa biotin-binding protein; unlabeled = cold Avidin
[1]
  binding of Avidin to talc at 48 hours: unchanged
